Results taken from patent publication US10421756B2, “Heterobicyclic N-aminophenyl-amides as inhibitors of histone deacetylase” (Rodin Therapeutics, Inc., priority 2015, dated 2019).

Columns and labels:
Type in all cases: binding
HDAC1 = HDAC1 (Homo sapiens (Human), UniProt Q13547); test: Reporter displacement assay (HDAC1); details: for Kd: reporter probe displacement, Cheng Prusoff
Experimental: [The procedure below names another target; the source lists this target under the same test.] (§1) HDAC2 containing a C-terminal HIS-Tag (Proteros) and fluorescently-labeled anti-HIS-antibody are diluted in one vial in assay buffer 50 mM Tris, pH 8.0, 1 mM DTT, 150 mM NaCl, and 0.01% Tween20. Components are pre-incubated for 30 min, then a small volume of reporter probe (Proteros) is added from a highly concentrated stock and incubation is continued for another 30 min.
(§2) Ten μl/well of pre-formed complex are transferred into 384 well assay plates (Corning). Compounds to be profiled are serially diluted from […] in DMSO and 60 nl are added to assay plates by pintool transfer (CybiWell, Cybio).
For Kd determination, percent probe displacement values are calculated for each compound concentration and plotted against the compound concentration. […] Since the reporter probe is used at a concentration reflecting its own Kd value, compound Kd values can be calculated according to the Cheng Prusoff equation.

HDAC2 [1] = molecular target: T1, HDAC2 (Homo sapiens (Human), UniProt Q92769); test: Reporter displacement assay (HDAC2)
HDAC2 [2] = molecular target: T1, HDAC2; test: Reporter displacement assay (HDAC2); details: reporter probe displacement, Cheng Prusoff
Experimental: as §1, with “min. Final concentrations after adding the reporter probe amount to 20 nM HDAC2, 4 nM antibody, and 180 nM probe.” for “min.”
as §2, with “Cybio). Fluorescence intensity signal is read after 4 h in a Pherastar FS (BMG Labtech) at 337/665 nm.” for “Cybio).”
For Kd determination, percent probe displacement values are calculated for each compound concentration and plotted against the compound concentration. IC50-like values (corresponding to 50% probe displacement) are calculated using standard fitting algorithms. Since the reporter probe is used at a concentration reflecting its own Kd value, compound Kd values can be calculated according to the Cheng Prusoff equation.
In the table, “A” indicates a Kd value of less than 0.1 μM; “B” a Kd value of between 0.1 μM and 0.5 μM; “C” a Kd value of greater than 0.5 μM and less than or equal to 5.0 μM; and “D” a Kd value of greater than 5.0 μM.

Sequence of HDAC1 (Q13547 whole entry): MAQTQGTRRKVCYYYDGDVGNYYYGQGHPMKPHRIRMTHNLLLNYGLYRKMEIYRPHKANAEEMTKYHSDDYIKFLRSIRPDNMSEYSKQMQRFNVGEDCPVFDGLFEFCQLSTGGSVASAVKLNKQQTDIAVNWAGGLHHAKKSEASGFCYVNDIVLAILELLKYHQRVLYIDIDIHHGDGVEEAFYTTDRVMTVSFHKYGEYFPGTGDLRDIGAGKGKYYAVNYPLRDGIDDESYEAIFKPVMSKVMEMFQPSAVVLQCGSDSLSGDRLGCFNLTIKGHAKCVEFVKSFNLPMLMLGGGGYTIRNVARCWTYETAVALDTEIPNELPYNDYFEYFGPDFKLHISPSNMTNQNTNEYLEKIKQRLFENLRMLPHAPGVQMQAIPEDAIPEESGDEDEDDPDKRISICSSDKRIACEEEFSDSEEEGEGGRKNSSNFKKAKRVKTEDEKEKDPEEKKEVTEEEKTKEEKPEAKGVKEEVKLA
T1 sequence (Q92769 whole entry): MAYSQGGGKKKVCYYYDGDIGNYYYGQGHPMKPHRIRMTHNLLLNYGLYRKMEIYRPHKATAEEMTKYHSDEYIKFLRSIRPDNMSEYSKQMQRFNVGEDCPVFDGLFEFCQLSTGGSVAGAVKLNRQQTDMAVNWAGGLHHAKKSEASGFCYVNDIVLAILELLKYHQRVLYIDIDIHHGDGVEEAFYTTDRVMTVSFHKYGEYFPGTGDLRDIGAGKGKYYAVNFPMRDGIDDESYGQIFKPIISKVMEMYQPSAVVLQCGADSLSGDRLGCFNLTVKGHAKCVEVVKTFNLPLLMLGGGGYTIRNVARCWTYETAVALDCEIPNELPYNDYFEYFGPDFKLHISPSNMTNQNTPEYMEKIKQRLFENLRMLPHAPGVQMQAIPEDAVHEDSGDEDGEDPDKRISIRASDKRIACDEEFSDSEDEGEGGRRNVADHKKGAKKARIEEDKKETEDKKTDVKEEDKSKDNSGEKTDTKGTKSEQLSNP

Row | SMILES | residence time (HDAC1) [min] | Kd (HDAC1) [nM] | residence time (HDAC2 [1]) [min] | Kd (HDAC2 [2]) [nM]
1 | Nc1ccc(-c2ccncc2)cc1NC(=O)N1Cc2cncnc2C1 [Compound 100] | 470 | 100 to 500 |  | 
2 | Nc1ccc(-c2ccncc2)cc1NC(=O)N1Cc2nccnc2C1 [Compound 101] | 906 | < 100 | 1930 | 100 to 500
3 | Nc1ccc(-c2ccncc2)cc1NC(=O)N1Cc2ccncc2C1 [Compound 102] | 1240 | < 100 | 1410 | 100 to 500
4 | Nc1ccc(-c2ccncn2)cc1NC(=O)N1Cc2ccncc2C1 [Compound 103] | 330 | 500 to 5000 | 1960 | 500 to 5000
5 | CC(C)(C)OC(=O)N1CC2CC1CN2C(=O)Nc1cc(-c2ccncc2)ccc1N (stereo not drawn) [Compound 104] |  | > 5000 |  | > 5000
6 | Nc1ccc(-c2ccncc2)cc1NC(=O)N1CC2CCC(C1)O2 [Compound 105] |  | > 5000 |  | > 5000
7 | CC(C)(C)OC(=O)N1C2CCC1CN(C(=O)Nc1cc(-c3ccncc3)ccc1N)C2 [Compound 106] |  | > 5000 |  | > 5000
8 | CC(=O)N1C2CCC1CN(C(=O)Nc1cc(-c3ccncc3)ccc1N)C2 [Compound 107] |  | > 5000 |  | > 5000
9 | CC(=O)N1CC2CC1CN2C(=O)Nc1cc(-c2ccncc2)ccc1N (stereo not drawn) [Compound 108] |  | > 5000 |  | > 5000
10 | CC(=O)N1C2CCC1CN(C(=O)Nc1cc(-c3ccncc3)ccc1N)C2 [Compound 109] |  | > 5000 |  | > 5000
11 | CC(C)(C)OC(=O)N1C2CCC1CN(C(=O)Nc1cc(-c3ccncc3)ccc1N)C2 [Compound 110] |  | > 5000 |  | > 5000
12 | Nc1ccc(-c2ccc(F)cc2)cc1NC(=O)N1CC2CCC(C1)O2 [Compound 111] | 34 | > 5000 | 61 | > 5000
13 | CC(C)(C)OC(=O)N1C2CCC1CN(C(=O)Nc1cc(-c3ccc(F)cc3)ccc1N)C2 [Compound 112] | 9 | > 5000 | 38 | > 5000
14 | Nc1ccc(-c2ccc(F)cc2)cc1NC(=O)N1CC2CCC(C1)N2 [Compound 113] |  | > 5000 |  | > 5000
15 | Nc1ccc(-c2ccc(F)cc2)cc1NC(=O)N1CC2CNCC2C1 (stereo not drawn) [Compound 114] | 127 | > 5000 | 1470 | 500 to 5000
16 | CN1CC2CN(C(=O)Nc3cc(-c4ccncc4)ccc3N)CC2C1=O (stereo not drawn) [Compound 115] | 98 | 500 to 5000 |  | 500 to 5000
17 | CC(=O)N1C2CCC1CN(C(=O)Nc1cc(-c3ccc(F)cc3)ccc1N)C2 [Compound 116] | 16 | > 5000 | 30 | > 5000
18 | Nc1ccc(-c2ccc(F)cc2)cc1NC(=O)N1CC2CCC(C1)N2C=O [Compound 117] | 29 | > 5000 | 36 | 500 to 5000
19 | Nc1ccc(-c2ccc(F)cc2)cc1NC(=O)N1CCC2(CCNC2)CC1 [Compound 118] | 1180 | < 100 | 636 | 100 to 500
20 | Nc1ccc(-c2ccc(F)cc2)cc1NC(=O)N1Cc2nccnc2C1 [Compound 119] | 1500 | 100 to 500 | 2150 | 100 to 500
21 | CNC(=O)N1CC2CN(C(=O)Nc3cc(-c4ccc(F)cc4)ccc3N)CC2C1 (stereo not drawn) [Compound 120] | 1550 | < 100 | 2360 | 100 to 500
22 | NCC(=O)N1CC2CN(C(=O)Nc3cc(-c4ccc(F)cc4)ccc3N)CC2C1 (stereo not drawn) [Compound 121] | 587 | 100 to 500 | 869 | 500 to 5000
23 | Nc1ccc(-c2ccc(F)cc2)cc1NC(=O)c1cn2c(n1)CNCC2 [Compound 122] | 1480 | < 100 | 1950 | 100 to 500

Row | SMILES | residence time (HDAC1) [min] | Kd (HDAC1) [nM] | residence time (HDAC2 [1]) [min] | Kd (HDAC2 [2]) [nM]
24 | Nc1ccc(-c2ccncc2)cc1NC(=O)c1cn2c(n1)CNCC2 [Compound 123] | 1050 | 100 to 500 | 1610 | 100 to 500
25 | CC(C)(C)OC(=O)N1CC2CN(C(=O)Nc3cc(-c4ccc(F)cc4)ccc3N)CC2C1 (stereo not drawn) [Compound 124] | 584 | 100 to 500 | 1790 | 100 to 500
26 | Nc1ccc(-c2ccc(F)cc2)cc1NC(=O)N1CC2CN(C(=O)C3CC3)CC2C1 (stereo not drawn) [Compound 125] | 788 | < 100 | 1410 | 100 to 500
27 | Nc1ccc(-c2ccc(F)cc2)cc1NC(=O)N1CC2CN(C3COC3)CC2C1 (stereo not drawn) [Compound 126] | 937 | < 100 | 2620 | 100 to 500
28 | Nc1ccc(-c2ccc(F)cc2)cc1NC(=O)N1CCC2(CC1)COC2 [Compound 127] | 1520 | < 100 | 2540 | 100 to 500
29 | N#CC1CCc2nc(C(=O)Nc3cc(-c4ccc(F)cc4)ccc3N)cn2C1 (stereo not drawn) [Compound 128] | 1730 | < 100 | 1500 | 100 to 500
30 | Nc1ccc(-c2ccncc2)cc1NC(=O)N1CC2CN(C3COC3)CC2C1 (stereo not drawn) [Compound 129] | 724 | < 100 | 1700 | 100 to 500
31 | Nc1ccc(-c2ccc(Cl)cc2)cc1NC(=O)N1Cc2ccncc2C1 [Compound 130] | 1080 | < 100 | 1300 | 100 to 500
32 | Nc1ccc(-c2ccc(F)c(F)c2)cc1NC(=O)c1cn2c(n1)CNCC2 [Compound 131] | 695 | 100 to 500 | 1200 | 100 to 500
33 | Nc1ccc(-c2ccc(C(F)(F)F)cc2F)cc1NC(=O)N1Cc2ccncc2C1 [Compound 132] | 47 | 500 to 5000 | 111 | 500 to 5000
34 | Nc1ccc(-c2ccc(F)cc2F)cc1NC(=O)N1Cc2ccncc2C1 [Compound 133] | 1300 | < 100 | 1460 | 100 to 500
35 | Nc1ccc(-c2cccnc2)cc1NC(=O)N1Cc2ccncc2C1 [Compound 134] | 192 | 100 to 500 | 790 | 100 to 500
36 | Nc1ccc(-c2ccc(F)c(F)c2)cc1NC(=O)N1Cc2ccncc2C1 [Compound 135] | 353 | 100 to 500 | 1210 | 100 to 500
37 | COCCN1CCC2(CCN(C(=O)Nc3cc(-c4ccncc4)ccc3N)CC2)C1 [Compound 136] | 941 | < 100 | 1540 | 100 to 500
38 | Nc1ccc(-c2ccc(F)c(F)c2)cc1NC(=O)N1Cc2nccnc2C1 [Compound 137] | 552 | 100 to 500 | 1380 | 100 to 500
39 | COCCN1CCC2(CCN(C(=O)Nc3cc(-c4ccc(F)cc4)ccc3N)CC2)C1 [Compound 138] | 724 | 100 to 500 | 2370 | 100 to 500
40 | COc1ccc(-c2ccc(N)c(NC(=O)N3Cc4ccncc4C3)c2)cc1 [Compound 139] | 1450 | < 100 | 2260 | < 100
41 | Nc1ccc(-c2ccc(C(F)(F)F)cc2)cc1NC(=O)N1Cc2ccncc2C1 [Compound 140] | 34 | 500 to 5000 | 341 | 500 to 5000
42 | Cc1cc(F)ccc1-c1ccc(N)c(NC(=O)N2Cc3ccncc3C2)c1 [Compound 141] | 1350 | > 5000 |  | > 5000
43 | Nc1ccc(-c2cc(F)c(F)c(F)c2)cc1NC(=O)N1Cc2ccncc2C1 [Compound 142] | 982 | 500 to 5000 | 1010 | 500 to 5000
44 | Nc1ccc(-c2ccc(F)cc2)cc1NC(=O)N1CCC2(CCN(CCF)C2)CC1 [Compound 143] | 1200 | < 100 | 1490 | 100 to 500
45 | Nc1ccc(-c2ccncc2)cc1NC(=O)N1CCC2(CCN(CCF)C2)CC1 [Compound 144] | 296 | 500 to 5000 | 1490 | 500 to 5000
46 | Nc1ccc(-c2ccc(F)c(Cl)c2)cc1NC(=O)N1Cc2ccncc2C1 [Compound 163] |  | 100 to 500 |  | 500 to 5000
